As usually defined, the viability is a read-out of living cells in per cent, often relative to untreated cells.

The data set is described as follows: in vitro. The following applies: human, hela cells, % viability.
With `NC(=O)C1CCN(C(=O)CSc2nc3ccccc3s2)CC1` [CBK293953], the viability at 28.5 h, 10 µM was found to be 95.2%.

Turning to `COc1ccccc1NC(=O)C1=C(C)Nc2nnnn2C1c1ccc(OC)c([N+](=O)[O-])c1` (stereo not shown) [CBK293954], the viability at 28.5 h, 10 µM worked out at 83.8%.

Turning to `CCOC(=O)c1c(N)sc2c1CC(c1ccccc1)SC2c1ccccc1` (stereo not shown) [CBK293955], the viability at 28.5 h, 10 µM was determined as 87.5%.

Regarding `COc1ccc(-c2cc(C(=O)NCc3cccnc3)c3cc(Br)ccc3n2)cc1` [CBK293958], the viability at 28.5 h, 10 µM was 86.1%.

Regarding `Cc1ccc(-c2cc(C(=O)NCc3cnn(C)c3)c3cc(Br)ccc3n2)cc1` [CBK293959], the viability at 28.5 h, 10 µM was 89.1%.

For `CCC1SC2=NC(C)=C(C(=O)OCc3ccccc3)C(c3ccccc3)N2C1=O` (stereo not shown) [CBK293960], the viability at 28.5 h, 10 µM was 82.7%.

For the compound `CCc1ccc(CN(C(=O)c2cc(OC)c(OC)c(OC)c2)C2CCS(=O)(=O)C2)cc1` (stereo not shown) [CBK293961], the viability at 28.5 h, 10 µM stood at 98.4%.

`O=C(CC1(O)C(=O)N(Cc2ccccc2)c2ccccc21)c1cc2ccccc2oc1=O` (stereo not shown) [CBK293963]: the viability at 28.5 h, 10 µM was determined as 106%.

In the case of `CC1=CC(C)C(C(=O)O)C(C(=O)NCc2cccnc2)C1` (stereo not shown) [CBK293964], the viability at 28.5 h, 10 µM came out at 113%.

On to `COc1ccc(S(=O)(=O)N2Cc3ccccc3CC2C(=O)Nc2ccc(O)cc2)cc1OC` (stereo not shown) [CBK293967], for which the viability at 28.5 h, 10 µM is 90.9%.

For the compound `O=C1CC(C(=O)Nc2cccc(C(=O)O)c2)C(c2ccccc2)O1` (stereo not shown) [CBK293968], the viability at 28.5 h, 10 µM turned out to be 87.1%.

Consider `CC(C)(C)c1ccc(OCC(O)Cn2c(CO)nc3ccccc32)cc1` (stereo not shown) [CBK293973], for which the viability at 28.5 h, 10 µM is 81.7%.

With `CC(C)CC(Nc1ncnc2c1oc1ccccc12)C(=O)O` (stereo not shown) [CBK293974], the viability at 28.5 h, 10 µM was 100%.

With `O=C(CC1(O)C(=O)N(CCc2ccccc2)c2ccc(Br)cc21)c1ccncc1` (stereo not shown) [CBK293976], the viability at 28.5 h, 10 µM stood at 90.2%.

In the case of `O=C(CSc1nc2ccccc2nc1N1CCCC1)N1CCN(c2ccccc2)CC1` [CBK293977], the viability at 28.5 h, 10 µM worked out at 86.5%.

`COc1cc(C2CC(=O)Nc3nc(N)[nH]c(=O)c32)ccc1OCc1ccc(F)cc1` (stereo not shown) [CBK293980]: the viability at 28.5 h, 10 µM is 84.8%.

As to `O=C(Nc1ccc(Oc2ccccc2)cc1)c1cc([N+](=O)[O-])cc2cn[nH]c12` [CBK293985], the viability at 28.5 h, 10 µM came to 82.5%.

Take `Cc1nc2ccc(NC(=O)CC(c3ccccc3)c3ccccc3)cc2s1` [CBK293988]: the viability at 28.5 h, 10 µM worked out at 90%.

Regarding `CC(C)Sc1nnc(N2C(N)=C(C#N)C(c3cccs3)C3=C2CCCC3=O)s1` (stereo not shown) [CBK293989], the viability at 28.5 h, 10 µM worked out at 82.8%.

Regarding `Cc1nc([N+](=O)[O-])c(C(=O)OCc2ccccc2C#N)n1C` [CBK293991], the viability at 28.5 h, 10 µM turned out to be 82.1%.

`COc1ccc(N2C(N)=C(C#N)C(c3cccc(OC(C)C)c3)C3=C2CCS3(=O)=O)cc1` (stereo not shown) [CBK293992]: the viability at 28.5 h, 10 µM is 85.6%.

Consider `COC(=O)C1=C(C)OC(n2cccc2)=C(C#N)C1c1cc(OC)c(O)c(OC)c1` (stereo not shown) [CBK293994], for which the viability at 28.5 h, 10 µM turned out to be 101%.

In the case of `CCOC(=O)c1noc2nc(C)n(Cc3nc(-c4ccccc4)oc3C)c(=O)c12` [CBK294400], the viability at 28.5 h, 10 µM stood at 89.6%.

With `CC1CCc2nc3ncn(CC(=O)NC4CC4)c(=O)c3cc2C1` (stereo not shown) [CBK294401], the viability at 28.5 h, 10 µM is 88.3%.

With `CCOC(=O)Cn1cnc2nc3c(cc2c1=O)CC(C)CC3` (stereo not shown) [CBK294402], the viability at 28.5 h, 10 µM was 90.6%.

As to `Cc1ccc(COc2cc(C(=O)NCc3ccccn3)c3ccccc3n2)cc1` [CBK294403], the viability at 28.5 h, 10 µM is 112%.

Turning to `Cc1csc(NC(=O)CSc2nnc3[nH]c(=O)cc(C)n23)n1` [CBK294413], the viability at 28.5 h, 10 µM amounted to 81.7%.

Turning to `Cc1csc(NC(=O)c2cccn(Cc3cccc([N+](=O)[O-])c3)c2=O)n1` [CBK294414], the viability at 28.5 h, 10 µM stood at 87.4%.

With `O=C(C1COc2ccccc2O1)N(Cc1cccnc1)c1nc2c(F)cccc2s1` (stereo not shown) [CBK294421], the viability at 28.5 h, 10 µM was 91%.

As to `COc1ccc2sc(N(Cc3cccnc3)C(=O)C3COc4ccccc4O3)nc2c1` (stereo not shown) [CBK294424], the viability at 28.5 h, 10 µM was 107%.

On to `CC(=O)c1cccc(NC(=O)c2cccn(Cc3ccc(C)cc3)c2=O)c1` [CBK294427], for which the viability at 28.5 h, 10 µM turned out to be 114%.

For the compound `COc1ccc(CNC(=O)c2sc3ncnc(N(C)C4CCCCC4)c3c2C)cc1` [CBK294431], the viability at 28.5 h, 10 µM worked out at 78.9%.

In the case of `CSc1ccc(CNC(=O)c2sc3nc(C)nc(N4CCCC4)c3c2C)cc1` [CBK294432], the viability at 28.5 h, 10 µM worked out at 96.8%.

Consider `CCc1nc(-c2ccc(C)c(S(=O)(=O)N3CCN(c4ccccc4)CC3)c2)no1` [CBK294434], for which the viability at 28.5 h, 10 µM amounted to 98.3%.

Turning to `CCc1cccc(-n2nc(C)c3c2NC(=O)CC3C(=O)c2ccc(CC)s2)c1` (stereo not shown) [CBK294435], the viability at 28.5 h, 10 µM was found to be 113%.

In the case of `Cc1nn(-c2ccccc2)c2c1C(C(=O)c1ccc3c(c1)OCO3)CC(=O)N2` (stereo not shown) [CBK294436], the viability at 28.5 h, 10 µM is 86.1%.

Consider `O=C1CC(C(=O)Nc2ccc(Cl)cc2)c2c(nc(SCc3ccccc3F)[nH]c2=O)N1` (stereo not shown) [CBK294437], for which the viability at 28.5 h, 10 µM came to 93.6%.

Consider `O=C1CC(c2cc(Br)ccc2F)c2scc(-c3ccccc3F)c2N1` (stereo not shown) [CBK294440], for which the viability at 28.5 h, 10 µM was 86.4%.

`NC(=O)COc1ccc(C2CC(=O)Nc3c(-c4cccc(F)c4)csc32)cc1` (stereo not shown) [CBK294441]: the viability at 28.5 h, 10 µM came to 99.6%.

As for `CC(=O)Nc1ccc(N2C(=O)CSC2c2ccccc2[N+](=O)[O-])cc1` (stereo not shown) [CBK294443], the viability at 28.5 h, 10 µM came to 110%.

For the compound `CCCn1c(=S)[nH]c2cc(C(=O)NCCc3ccc(Cl)cc3)ccc2c1=O` [CBK294445], the viability at 28.5 h, 10 µM is 88.6%.

Consider `CCOC(=O)N1CCC(NC(=O)c2ccc3nc4ccccc4c(=O)n3c2)CC1` [CBK294447], for which the viability at 28.5 h, 10 µM came to 81.1%.

As for `COc1ccc(CCNc2ncnc3c2cnn3-c2ccc(C)cc2C)cc1OC` [CBK294448], the viability at 28.5 h, 10 µM is 88.2%.

In the case of `O=C(NCCN1CCOCC1)c1cc(-c2ccc(F)cc2)nc2ccc(Br)cc12` [CBK294450], the viability at 28.5 h, 10 µM stood at 89.9%.

On to `O=C(NCc1ccc(Cl)cc1)c1cc(-c2ccc(F)cc2)nc2ccccc12` [CBK294451], for which the viability at 28.5 h, 10 µM came to 111%.

For `O=C(c1ccc(SCc2cccnc2)c([N+](=O)[O-])c1)N1CCCCC1` [CBK294452], the viability at 28.5 h, 10 µM was found to be 98.8%.

On to `Cc1cccc(-n2cnc3cc(C(=O)NCc4cccnc4)ccc32)c1` [CBK294455], for which the viability at 28.5 h, 10 µM amounted to 77.5%.

Regarding `CCOc1ccc(NC(=O)Cn2c3c(c(-c4ccccc4)cc2=O)CCCC3)cc1` [CBK294457], the viability at 28.5 h, 10 µM was found to be 85.8%.

For `COc1ccc(-c2cc(C(=O)NC3CCCCC3C)c3ccccc3n2)cc1` (stereo not shown) [CBK294459], the viability at 28.5 h, 10 µM stood at 107%.

On to `Cc1nc2nc(SCc3cc(=O)n4ccccc4n3)nn2c(C)c1Cc1ccccc1` [CBK294460], for which the viability at 28.5 h, 10 µM came out at 89.9%.

Take `O=C1N(CN2CCN(c3cccc(C(F)(F)F)c3)CC2)c2ccccc2C12OCCCO2` [CBK294461]: the viability at 28.5 h, 10 µM turned out to be 99%.

Regarding `CC(C)N(C)C1CCN(S(=O)(=O)c2cccc([N+](=O)[O-])c2)CC1` [CBK294462], the viability at 28.5 h, 10 µM stood at 88.7%.

Turning to `CCN(CCCNC(=O)c1cc(-c2cccnc2)nc2ccccc12)c1cccc(C)c1` [CBK294465], the viability at 28.5 h, 10 µM was found to be 86.7%.

As to `CC(=O)Nc1cc(C(=O)NCc2ccc(F)cc2)ccc1Sc1ccc(Cl)cc1` [CBK294468], the viability at 28.5 h, 10 µM came to 96.2%.

As for `O=C(CCN1C(=O)COc2ccccc21)NCCCN1CCN(c2ccccc2F)CC1` [CBK294469], the viability at 28.5 h, 10 µM was 102%.

As to `CCC(C)NC(=O)C1CCC(=O)N1Cc1ccc(C)cc1` (stereo not shown) [CBK294470], the viability at 28.5 h, 10 µM stood at 90%.

Turning to `COCCN(C(=S)Nc1ccc(OC)cc1)C(C)c1cccnc1` (stereo not shown) [CBK294471], the viability at 28.5 h, 10 µM turned out to be 83.7%.

On to `COCCN(C(=S)Nc1ccc(C)cc1Cl)C(C)c1cccnc1` (stereo not shown) [CBK294472], for which the viability at 28.5 h, 10 µM was 91.1%.

For the compound `CCOc1ccc(CNc2sc3c(c2C(=O)Nc2ccc(OC)cc2)CCC3)cc1` [CBK294473], the viability at 28.5 h, 10 µM was 80.6%.

Regarding `COc1ccc(C2CC(c3cccc(Br)c3)Nc3ncnn32)cc1OC` (stereo not shown) [CBK294474], the viability at 28.5 h, 10 µM amounted to 82.7%.

As for `COc1ccc(-c2nnc(SCC(=O)Nc3cc(C(C)(C)C)no3)n2C2CCCCC2)cc1OC` [CBK295131], the viability at 28.5 h, 10 µM was 105%.

Turning to `CCCn1c(SCC(=O)N(C)Cc2ccc(OCC)cc2)n[nH]c1=O` [CBK295132], the viability at 28.5 h, 10 µM was 90%.

For the compound `CCCCCC(=O)Nc1ccc(C(=O)CSc2nnc(-c3ccco3)o2)cc1` [CBK295134], the viability at 28.5 h, 10 µM amounted to 84%.

`O=C(CSc1nnc(-c2ccco2)o1)N1CCN(CC(=O)N2CCCC2)CC1` [CBK295136]: the viability at 28.5 h, 10 µM turned out to be 111%.

Consider `COc1ccc(NC(=O)c2ccc(-c3nnn[nH]3)cc2)cc1OC` [CBK295138], for which the viability at 28.5 h, 10 µM is 97.7%.

Take `COc1ccc(NC(=O)c2ccc(-c3nnn[nH]3)cc2)cc1Cl` [CBK295139]: the viability at 28.5 h, 10 µM was 114%.

Take `CCCn1c(SCc2csc(COc3ccc(Cl)cc3)n2)n[nH]c1=O` [CBK295140]: the viability at 28.5 h, 10 µM is 82.3%.

In the case of `O=C(CNC(=O)c1ccco1)Nc1cccc(-c2nc3ccccc3s2)c1` [CBK295142], the viability at 28.5 h, 10 µM came out at 85.4%.

In the case of `CC(=O)Nc1cc(C(=O)CSc2nnnn2-c2ccc(C)c(C)c2)ccc1O` [CBK295143], the viability at 28.5 h, 10 µM is 90.9%.

Turning to `CCOc1ccccc1OCCCOc1ccc(C(=O)O)cc1` [CBK295144], the viability at 28.5 h, 10 µM was found to be 110%.

`O=C(c1cnn(C(=O)c2ccc3c(=O)n4c(nc3c2)CCC4)c1)c1ccccc1O` [CBK295145]: the viability at 28.5 h, 10 µM was 95.7%.

Take `CC(NC(=O)Cc1ccc(-c2ccccc2)cc1)c1cccnc1` (stereo not shown) [CBK295147]: the viability at 28.5 h, 10 µM came out at 95%.

Turning to `CCOC(=O)c1sc(NC(=O)CCNC(=O)c2ccccc2C(=O)O)c(C#N)c1C` [CBK295152], the viability at 28.5 h, 10 µM worked out at 96.1%.

As for `CCc1cccc2c(C=C3C(=O)N(CC(=O)O)C(=O)c4ccccc43)c[nH]c12` [CBK295153], the viability at 28.5 h, 10 µM was 81.5%.

For the compound `Cc1ccc2[nH]c(-c3ccccc3NC(=O)CCCC(=O)O)nc2c1` [CBK295154], the viability at 28.5 h, 10 µM came out at 86%.

As to `O=C(O)Cc1csc(SCc2cc(F)cc3c2OC(c2ccccc2)OC3)n1` (stereo not shown) [CBK295158], the viability at 28.5 h, 10 µM amounted to 107%.
